Assay results reported in patent US12509423B2, “Compound, aldehyde dehydrogenase 2 activating agent, pharmaceutical composition, and therapeutic and/or prophylactic drug” (Alchemedicine, Inc., priority 2020, dated 2025).

Assays:
[1] = biological target: T1, human recombinant ALDH2 enzyme (Homo sapiens, UniProt P05091); experiment: ALDH2 activation effect (acetaldehyde oxidation rate, PicoProbe Aldehyde dehydrogenase Activity Assay Kit); assay type: biochemical
T1 construct: purchased BioVision Inc
T1 sequence (P05091 18-517): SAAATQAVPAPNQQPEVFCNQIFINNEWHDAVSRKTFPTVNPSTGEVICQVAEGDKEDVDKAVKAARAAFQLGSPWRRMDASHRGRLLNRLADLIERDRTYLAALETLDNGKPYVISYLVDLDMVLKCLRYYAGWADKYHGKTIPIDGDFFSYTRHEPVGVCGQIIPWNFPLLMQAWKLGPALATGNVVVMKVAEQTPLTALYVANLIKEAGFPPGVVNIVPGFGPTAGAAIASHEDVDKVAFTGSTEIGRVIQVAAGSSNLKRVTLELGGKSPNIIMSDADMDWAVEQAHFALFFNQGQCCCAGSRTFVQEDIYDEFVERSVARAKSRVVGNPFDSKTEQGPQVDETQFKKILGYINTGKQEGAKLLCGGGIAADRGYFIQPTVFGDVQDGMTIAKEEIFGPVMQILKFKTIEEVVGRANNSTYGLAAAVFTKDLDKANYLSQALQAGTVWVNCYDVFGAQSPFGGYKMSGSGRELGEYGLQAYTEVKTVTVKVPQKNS
Procedure: The activation effect of each test compound on the acetaldehyde oxidation rate of ALDH2 was measured with the following method. A test was conducted by using a commercially available PicoProbe™ Aldehyde dehydrogenase Activity Assay Kit (manufactured by BioVision Inc.) with reference to an instruction attached to the product under the following conditions. To each well of a 384-well plate, the following (1) to (3) were sequentially added with a pipette: • (1) 10 μL of solution obtained by dissolving and diluting a human recombinant ALDH2 enzyme (manufactured by BioVision Inc.) with ALDH assay Buffer to reach 3-μg/mL; • (2) 10 μL of 30 μM or 90 μM test compound solution (with 3% DMSO) prepared by using ALDH assay Buffer; and • (3) 10 μL of Reaction mix composed with ratio of 8.6 μL of ALDH assay Buffer, 0.6 μL of PicoProbe, 0.3 μL of Substrate Mix, and 1.5 μL of Acetaldehyde.
Before addition of (3), incubation was performed at room temperature for 5 minutes. After addition of (3), fluorescence intensity was measured at room temperature every 2.5 minutes over a period of 180 minutes by using an EnSight (manufactured by PerkinElmer Inc.). Wavelengths of 535 nm and 587 nm were used for fluorescence intensities of excitation and -emission, respectively.

[2] = Metabolic stability with mouse hepatic microsomes; assay type: in vitro ADME
Procedure: Metabolic stability in mouse hepatic microsomes was evaluated with the following method.
• (1) Mouse hepatic microsomes: 20 mg/mL • (2) Test compound: 1.1 mM DMSO solution • (3) Potassium phosphate buffer solution: 66.7 mM (pH 7.4) • (4) NADPH solution: 10 mM in potassium phosphate buffer solution • (5) Quenching solution: 0.5% formic acid-acetonitrile solution with warfarin as internal standard substance 2. Method
Into a propylene tube, 971.5 μL of the potassium phosphate buffer solution and 27.5 μL of the mouse hepatic microsomes were put and suspended. Thereto, 1 μL of a test compound was added, and 180 μL was taken from this mixture and transferred into another tube. The mixture was preincubated at 37° C. for 5 minutes, and 20 μL of the NADPH solution (for the case with an incubation time of 30 minutes) or 20 μL of the potassium phosphate buffer solution (for the case with an incubation time of 0 minutes) was then added thereto. After incubation, 200 μL of the quenching solution was added to terminate the reaction. Subsequently, centrifugation was performed at 3220×g for 20 minutes, and the concentration of the unchanged form of the test compound in 200 μL of the supernatant was measured with LC-MS/MS. On the basis of the peak area obtained for the unchanged form, the residual rate (%) of the unchanged form was calculated as that for the case with an incubation time of 0 minutes was assumed as 100%.

[3] = Metabolic stability with human hepatic microsomes; assay type: in vitro ADME; conditions: human hepatic microsomes 0.1 mg protein/mL, 0.1 μmol/L test compound, after 30 minutes, 37° C.
Procedure: The specific method is as follows.
• (1) Fifty microliter-portions were taken from 0.2 μmol/L test compound diluted with β-NADPH solution. • (2) Fifty microliters of 0.2 mg protein/mL human hepatic microsome solution was added to each (except for a sample with a reaction time of 0 minutes). • (3) Incubation was performed with shaking at 37° C. for 30 minutes (concentration in reaction sample: 0.1 μmol/L test compound, 0.1 mg protein/mL human hepatic microsome). • (4) After incubation, 400 μL of methanol was added to terminate the reaction. • (5) To the sample with a reaction time of 0 minutes, 50 μL of 0.2 mg protein/mL hepatic microsome solution was added. • (6) Each of the samples from (4) and (5) was left to stand at −20° C. for 30 minutes or longer, and then centrifuged at 4° C. and 3,000 rpm for approximately 10 minutes. • (7) The supernatant was subjected to measurement with LC/MS/MS, and, based on the peak area obtained for the unchanged form, the residual rate (%) of the unchanged form was calculated as that for the case with an incubation time of 0 minutes was assumed as 100%.

[4] = biological target: hERG (human Ether-a-go-go Related Gene) channel (Homo sapiens, UniProt Q12809); experiment: hERG channel inhibition effect (whole-cell patch clamp); assay type: cell-based; conditions: 22 to 25° C.
hERG (human Ether-a-go-go Related Gene) channel, sequence (Q12809 whole entry): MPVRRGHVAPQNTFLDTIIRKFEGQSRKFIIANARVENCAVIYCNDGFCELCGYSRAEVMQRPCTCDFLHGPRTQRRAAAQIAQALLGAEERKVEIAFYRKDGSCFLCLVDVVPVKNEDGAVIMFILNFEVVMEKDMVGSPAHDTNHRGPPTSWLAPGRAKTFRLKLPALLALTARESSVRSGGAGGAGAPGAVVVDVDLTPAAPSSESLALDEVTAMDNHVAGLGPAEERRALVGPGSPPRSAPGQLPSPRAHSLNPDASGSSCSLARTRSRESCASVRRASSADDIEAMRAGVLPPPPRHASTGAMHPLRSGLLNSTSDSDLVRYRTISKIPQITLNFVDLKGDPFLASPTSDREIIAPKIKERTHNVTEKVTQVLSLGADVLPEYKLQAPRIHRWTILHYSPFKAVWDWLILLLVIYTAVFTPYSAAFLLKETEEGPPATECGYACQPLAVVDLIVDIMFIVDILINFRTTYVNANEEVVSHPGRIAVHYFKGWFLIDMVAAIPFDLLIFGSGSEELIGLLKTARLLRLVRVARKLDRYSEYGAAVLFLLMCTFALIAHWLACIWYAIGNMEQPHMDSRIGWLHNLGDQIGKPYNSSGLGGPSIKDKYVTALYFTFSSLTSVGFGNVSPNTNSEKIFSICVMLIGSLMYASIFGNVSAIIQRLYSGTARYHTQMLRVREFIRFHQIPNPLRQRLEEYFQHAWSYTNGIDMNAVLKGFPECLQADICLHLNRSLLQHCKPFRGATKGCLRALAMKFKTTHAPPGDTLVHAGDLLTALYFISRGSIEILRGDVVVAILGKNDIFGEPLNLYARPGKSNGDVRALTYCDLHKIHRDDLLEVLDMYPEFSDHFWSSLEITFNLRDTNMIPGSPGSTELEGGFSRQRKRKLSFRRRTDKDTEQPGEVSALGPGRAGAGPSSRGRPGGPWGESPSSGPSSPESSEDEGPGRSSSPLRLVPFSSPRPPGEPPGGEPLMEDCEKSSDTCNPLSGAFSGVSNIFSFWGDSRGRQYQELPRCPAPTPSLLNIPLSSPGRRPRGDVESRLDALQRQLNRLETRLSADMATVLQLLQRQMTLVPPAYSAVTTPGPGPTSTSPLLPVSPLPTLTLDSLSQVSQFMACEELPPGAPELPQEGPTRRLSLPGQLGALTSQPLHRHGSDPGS
Procedure: The hERG (human Ether-a-go-go Related Gene) channel inhibition effect of each test compound was examined with the following patch clamp method.
Under a fixed potential, an hERG current that passed through the whole cell membrane was recorded with the whole-cell patch clamp method.
To confirm the hERG current, the holding potential was set to −80 mV, and depolarizing pulses at −50 mV for 110 msec and at 20 mV for 4 sec and a subsequent repolarizing pulse at −50 mV for 2 sec were provided at a frequency of once per 15 seconds. After the stabilization of the hERG tail current obtained was confirmed, an application was initiated. The pulses were continuously provided also during the application.
The sampling frequency was set to 5 kHz, and Lowpass Filter was applied at 2 kHz. […]
hERG currents were measured by using an amplifier for patch clamping (Axopatch 200B, Molecular Devices, LLC), and electric signals obtained were recorded in a computer via recording/analysis software for patch clamping (pCLAMP 10, Molecular Devices, LLC).
The maximum tail current value was determined on the basis of the current value with the depolarizing pulse at −50 mV for 110 msec, and the change rate (suppression rate) 5 minutes after the initiation of application to the maximum tail current value before application of the test compound was calculated.

[5] = tested on: pain induced by carrageenan (mechanical allodynia); experiment: Suppression effect on pain induced by carrageenan (von Frey escape score); assay type: in vivo, C57BL/6J mice; conditions: mean ± SE
Procedure: This experiment was carried out with reference to Science Translational Medicine 6, 251ra118 (2014). Animals used were 7-week-old male C57BL/6J mice (Charles River Laboratories Japan, Inc.). To induce mechanical allodynia to a sole part, carrageenan was subcutaneously administered to the sole of the left hind limb of each mouse. The escape response against mechanical stimulation 180 minutes after the induction was measured by using a von Frey filament with bending force (0.16 grams) to the sole surface of the left hind limb in the ascending direction. […] The commercially available statistical program SAS SYSTEM (SAS Software Release 9.1.3; SAS Institute Japan Ltd.) was used for the significance test.

Question: For COCc1ccc(CNC(=O)c2cc(-c3ncccc3CO)ccc2F)cc1F [Example 1, 2-Fluoro-N-(3-fluoro-4-(methoxymethyl)benzyl)-5-(3-(hydroxymethyl)pyridin-2-yl)benzamide], which “acetaldehyde oxidation rate (rate with no test compound assumed as 100%)” value ([1]; concentration of test compound 10 μM) is on record?
Answer: 196%

Question: And the “acetaldehyde oxidation rate (rate with no test compound assumed as 100%)” value ([1]; concentration of test compound 30 μM)?
Answer: 238%

Question: And the “metabolic stability in mouse hepatic microsomes (in words)” value [2]?
Answer: confirmed to have stability

Question: And the “Residual rate (%) of unchanged form” value ([2]; mouse hepatic microsomes, after 30 minutes, 37° C., NADPH)?
Answer: 90%

Question: And the “Residual rate (%) of unchanged form” value [3]?
Answer: 90%

Question: And the IC50 [4]?
Answer: > 100 µM

Question: What about the Pain-related total score ([5]; 2 mg/kg s.c. three times, 180 min after induction with carrageenan) of the same molecule?
Answer: 10.5 ± 1.6

Question: And the Pain-related total score ([5]; 2 mg/kg s.c. three times, Pre (before carrageenan treatment))?
Answer: 3.0 ± 0.3

Question: What about the Pain-related total score ([5]; 6 mg/kg s.c. three times, 180 min after induction with carrageenan, significant difference from Vehicle group) of the same molecule?
Answer: 8.3 ± 1.0

Question: And the Pain-related total score ([5]; 6 mg/kg s.c. three times, Pre (before carrageenan treatment))?
Answer: 3.0 ± 0.3

Question: And the Pain-related total score ([5]; 20 mg/kg s.c. three times, 180 min after induction with carrageenan)?
Answer: 8.6 ± 1.4

Question: What about the Pain-related total score ([5]; 20 mg/kg s.c. three times, Pre (before carrageenan treatment)) of the same molecule?
Answer: 3.0 ± 0.3
